System: Mycobacterium tuberculosis H37Rv growth inhibition, no glycerol
Assay: Confirmatory growth inhibition assay, Mycobacterium tuberculosis H37Rv, absence of glycerol (AID 449764);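 note: growth read after 7 days of incubation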
Settings: for IC90: measured here: IC90 growth inhibition

SMILES | IC50 [µM] | IC90 [µM]
CCCn1nnc(NC(=O)COc2ccc(CC)cc2)n1 | 48.4 | > 100
C/C(=N\Nc1ccc(Cl)c(Cl)c1)c1ccc(-n2ccnc2)cc1 | 87.2 | 95.6
Cc1nc2ccc(OC(=O)c3ccccc3)cc2s1 | 88.1 | > 100
Cc1cc2nc(/N=C(\N)NC(=O)C(C)C)nc(C)c2cc1C | 18.1 | > 100
Cc1cc(C)c2oc(-c3ccc(C)c(NC(=S)NC(=O)/C=C/c4ccco4)c3)nc2c1 | 77.5 | > 100
CCN(Cc1ccncc1)Cc1nc(-c2ccc(C(=O)OC)cc2)no1 | 34.2 | 53.6
O=C(CSCc1ccc([N+](=O)[O-])cc1)N/N=C/c1ccncc1 | 11.3 | 26
CCNc1nc(NCC)nc(N/N=C/c2ccc([N+](=O)[O-])o2)n1 | 1.3 | 1.7
CSCCC(=O)N1CCCC(CNC(=O)c2ccc(-c3ccccc3)cc2)C1 (configuration not stated) | 41.5 | 70.6
N#CCCN(C(=O)COC(=O)CCc1c[nH]c2ccccc12)c1ccc(F)cc1 | 34.4 | 68.5
Cc1nc2sccn2c(=O)c1CCN1CCC(=C(c2ccccc2)c2ccc(F)cc2)CC1 | 35.8 | 51.2
Cc1nn(-c2ccccc2)c(Cl)c1/C=C/C(=O)c1ccccc1 | 74.9 | 97.2
Nc1c2c(nc3ccn(Cc4ccccc4)c(=O)c13)CCC2 | 9.72 | 15.9
CCN(CC)c1ccc2nc3ccccc3[n+](CC)c2c1 | 3.23 | 5.55
Cc1ccc(/C=C/S(=O)(=O)NCC(=O)OCC(=O)Nc2c(F)cccc2F)cc1 | 22.9 | 41.3
CCC(C)NC(=O)c1c(N)n(/N=C/c2ccccn2)c2nc3ccccc3nc12 (configuration not stated) | 13.7 | 22.4
Cc1ccnc(NC(=O)CCc2c[nH]c3ccccc23)c1 | 21.5 | 31.9
COC(=O)C1=C(C)N(Cc2ccccc2)C(=NCc2cccc(Cl)c2)N[C@H]1c1ccccc1 | 20.4 | 26.6
CCCOc1ccc(N2CC(C(=O)Nc3ccccn3)CC2=O)cc1 (configuration not stated) | 36.4 | > 100
O=C(c1ccccc1)c1ccc(OCCOCCN2CCN(Cc3ccccc3)CC2)cc1 | 24 | 27.5
O=c1c2cc(Br)cc(Br)c2oc2nc3n(c(=O)c12)CCCS3 | 10.4 | 23.3
COc1cccc2sc(Nc3nnc(-c4cccs4)o3)nc12 | 33.9 | 42.7
O=C(CCC(=O)OCc1ccc(C(=O)Oc2ccc(Cl)cc2)cc1)Nc1ccccc1 | 80.2 | > 100

SMILES | IC50 [µM] | IC90 [µM]
CCN1CCN(c2oc(COc3ccc(-c4ccccc4)cc3)nc2C#N)CC1 | 36.4 | 47.6
COC(=O)C1C2c3ccccc3OC1(C)N=c1s/c(=C/c3cnn(C)c3C)c(=O)n12 (configuration not stated) | 6.44 | 41.1
O=C1CN(CC(=O)N2CCCCC2)c2ccccc2O1 | 24.8 | 27.1
Cc1nn(-c2ccccc2)c2c1C(c1ccc([N+](=O)[O-])cc1)N1C(=N2)C(=O)Nc2ccccc21 (configuration not stated) | 55.3 | > 100
CN(C)c1ccc(/C=C2\N=C(C(C)(C)C)OC2=O)cc1 | 86 | > 100
S=C(NCCN1CCOCC1)N/N=C/c1cccs1 | 6.31 | 7.16
CC(C)NC(=O)c1onc(CSc2ccc(F)c(F)c2)c1C(=O)O | 17.8 | 22.9
CCOC(=O)CSc1cc(=O)n(C)c2cc(Cl)ccc12 | < 0.2 | 18.3
C/C(Cl)=C\COc1cc(C)nc2c(Br)cccc12 | 21.2 | 24.4
COc1c[nH]n(C2CCCCC2)c(=O)c1=O | 24.1 | 27.6
O=C(c1cc2cc(F)ccc2[nH]1)N(Cc1cccnc1)CC1CCCN(C2CCCCC2)C1 (configuration not stated) | 42.6 | 46.1
O=C(CCl)Nc1cn(-c2ccccc2)nc1-c1ccccc1 | 0.5 | 1.23
CC1=NOC(=O)/C1=C/c1ccc(-c2ccc(Cl)cc2)o1 | 18.4 | > 100
C/C(CCc1ccc2c(c1)OCO2)=N\NC(=S)NC(C)C | 98.4 | > 100
COc1ccc(-c2csc(NC(C)c3nc4cc(Cl)c(N5CCCCC5)cc4n3CCCO)n2)cc1 (configuration not stated) | 23 | 26.2
O=C(/C=C/c1cn(-c2ccccc2)nc1-c1cccnc1)c1ccco1 | 39.5 | 54.8
O=C(CSC1=Nc2ccccc2C2=NC(c3ccccc3)C(=O)N12)NC1CCCCC1 (configuration not stated) | 1.03 | 1.73
O=C(NNc1nc(-c2ccccc2)cs1)c1ccccc1 | 40.2 | > 100
NC(=S)N/N=C/c1ccccc1OCCSc1ccc(Cl)cc1 | 37.8 | > 100
COc1ccccc1OC(=O)c1ccc(S(=O)(=O)N(C)C)cc1 | 16.4 | 35.8
CCCCC(=O)Nc1sc2c(c1C(=O)OCC)CCC(C=O)=C2Cl | 38.8 | > 100
COCCCn1c(SCc2cccc(OC)c2)nc2cc(OC)c(OC)cc2c1=N | 33.9 | 44.6
COC(=O)c1c(NC(=S)NN2CCN(C)CC2)sc2c1CCC(C)C2 (configuration not stated) | 22.8 | 26.6

SMILES | IC50 [µM] | IC90 [µM]
CCOC(=O)CN(C#N)c1nc(N(C)C)nc(N(C)C)n1 | 12.8 | 14.6
CCOC(=O)c1ccc(NC(=O)Cn2ncc(Cl)c(Cl)c2=O)cc1 | < 0.2 | 2.19
c1ccc(C2[C@H]3CN(CC4CCCCC4)[C@H](c4ccccc4)C34CC2(c2cccnc2)C4)cc1 (some centres not stated) | 34.2 | 45.1
O=C1CCCC2=C1C1c3ccccc3C(=O)N1c1ccc(C(=O)c3ccccc3)cc1N2 (configuration not stated) | 22 | 24.4
NC1=NC[C@H](Cc2ccc(O)cc2)N1CCc1cccc2ccccc12 | 40.9 | 45.6
CCCC(=O)OCCNc1cc(SCCC(=O)OC)c2nonc2c1[N+](=O)[O-] | 5.85 | 6.66
c1ccc(CN2CCC(Nc3nc(-c4ccccc4)nc4ccccc34)CC2)cc1 | 10.9 | 16.6
Cc1ccc2ccc3ccc(C)nc3c2n1 | 1.4 | 2.11
CCOC(=O)c1nc2sc3c(c2c(=O)[nH]1)CCC(C)C3 (configuration not stated) | 69.8 | > 100
Cc1cc(Nc2cc(Cl)nc(Sc3ccc(NC(=O)C4CC4)cc3)n2)n[nH]1 | 43.2 | 59.2
CCOC(=O)CSc1nn(-c2ccccc2)c(=S)s1 | 6.12 | 6.9
CCc1cc2c(=O)c(-c3cnn(-c4ccccc4)c3)c(C)oc2c(CN2CCCCC2)c1O | 32.4 | 52.4
O=C(COC(=O)C1=COCCO1)Nc1cccc(Oc2ccccc2)c1 | 9.49 | 37.2
Cc1cc(C=C2C(=O)NC(=S)NC2=O)c(C)n1C1CCCC1 | 34.9 | 73.9
O=C1Nc2cc(C(=O)NCCCN3CCOCC3)ccc2S/C1=C/c1cccc(Cl)c1 | 32.9 | 44.9
CC(OC(=O)c1cc(Cl)ccc1[N+](=O)[O-])C(=O)NC(C)c1ccc(F)cc1 (configuration not stated) | 27.6 | > 100
Cn1c(/C=N/Nc2nc3ccccc3[nH]2)nc2ccccc21 | 61.8 | 79.8
CN(C)c1ccc(CNc2nc(-c3ccccc3)nn2S(C)(=O)=O)cc1 | 14.2 | 26.5
Cc1ccc(OCCN2CCN(c3ncnc4sc(C)c(C)c34)CC2)cc1 | 53.5 | 79.3
COc1ccc2[nH]c3c(C)c4ccncc4c(C)c3c2c1 | 1.33 | 1.68
O=C(O)C1CC=CCC1C(=O)N1CCN(c2nc(-c3ccccc3Cl)c3cc(Br)ccc3n2)CC1 (configuration not stated) | 43.2 | 68.8
CC1CCCC(NC(=O)NC(=O)CCl)C1C (configuration not stated) | 8.62 | 14.3
O=c1[nH]c(CSc2cccc[n+]2[O-])nc2ccccc12 | 89.1 | 99.6

SMILES | IC50 [µM] | IC90 [µM]
CC/C(=C(\c1ccc(O)cc1)c1ccc(OCCN(C)C)cc1)c1ccccc1 | 26.5 | 45
CCc1ccc(NC2=NCC(c3ccccc3)S2)cc1 (configuration not stated) | 8.96 | 16.7
COc1ccccc1-n1cc2c([N+](=O)[O-])cc([N+](=O)[O-])cc2n1 | 1.98 | 5.89
CC(C)CCNC(=O)C(c1ccc(O)cc1)N(C(=O)C1COc2ccccc2O1)c1cccc(O)c1 (configuration not stated) | 71.6 | > 100
O=C(OCC(=O)N1CCN(C(=O)c2ccco2)CC1)c1cc(-c2cccc(Br)c2)nc2ccccc12 |  | > 100
Cc1cc(-c2n[nH]c(=S)n2/N=C/C(Br)=C/c2ccccc2)n[nH]1 | 5.55 | 8.35
c1ccc2sc(Sc3ncnc4sccc34)nc2c1 | 11.4 | 12.9
CCOC(=O)c1cnc(SC2CCc3ccccc3C2=O)nc1N (configuration not stated) | 87.1 | 96.5
CCOC(=O)c1ccc(N=c2sc(C(=O)OC)cc(=O)n2CCCN2CCOCC2)cc1 | 9.02 | 16.9
Cc1ccc(C(=O)CC(SCC(=O)O)c2ccc([N+](=O)[O-])cc2)cc1 (configuration not stated) | 10.8 | 12.1
CN(C)C(=O)c1ccc(NC(=O)COC(=O)c2cc3c(s2)CCCCC3)cc1 | 91.6 | > 100
CCCCCCc1cc2cc(C(=O)NCc3ccccc3)c(=N)oc2cc1O | 5.67 | 6.45
N#C/C(=C/c1ccc(Sc2nc3ccccc3[nH]2)o1)c1cccc(Br)c1 | 57.9 | > 100
CN(C)c1ccnc2c[cH-]cc12.[Fe].c1ccc(-[c-]2[c-](-c3ccccc3)[c-](-c3ccccc3)[c-](-c3ccccc3)[c-]2-c2ccccc2)cc1 (configuration not stated) | 14.3 | 19
Cc1c([N+](=O)[O-])cnc(Sc2ccccc2)c1[N+](=O)[O-] | 5.8 | 9.94
CCC(=O)c1ccc(OCC(O)CN2CCN(c3cccc(C(F)(F)F)c3)CC2)cc1 (configuration not stated) | 19.7 | 26.7
COC(=O)C(C)Oc1ccc2c(c1)O/C(=C\c1ccco1)C2=O (configuration not stated) | 11.3 | 17.2
CCOC(=O)N1CCC(n2c(SCC(=O)OCc3ccccc3)nc3ccsc3c2=O)CC1 | 61.6 | > 100
Oc1ccccc1NCC(O)Cn1ccc2ccccc21 (configuration not stated) | 11.5 | 12.3
CC1CCN(C(=S)NC(=O)c2cccs2)CC1 | 23 | 26.3

From PubChem BioAssay AID449764 (Southern Research Specialized Biocontainment Screening …, 2010)
